Measured values: ChEMBL document CHEMBL4651402, “Screening of ~5500 FDA-approved drugs and clinical candidates for anti-SARS-CoV-2 activity” (2021)

Test system: SARS-CoV-2
Assay: microbe, parasite or virus in culture
Conditions: Severe acute respiratory syndrome coronavirus 2, Vero C1008, 48 h

Nc1ccc(C#Cc2cnn3c(C(F)(F)F)cc(-c4ccc(C(F)(F)F)cc4)nc23)cn1 [DECOGLURANT]
IC50: > 20 µM
IC50 (read-out: pIC50 (converted)): > 20 µM

CC(C)(C)NCC(O)COc1cccc2c1C(=O)OC2 (stereo unspecified) [AFUROLOL]
IC50: > 20 µM
IC50 (read-out: pIC50 (converted)): > 20 µM

CC(=O)Oc1ccc2c(c1)CCC1C2CCC2(C)C(O)CCC12 (stereo unspecified)
IC50: > 20 µM
IC50 (read-out: pIC50 (converted)): > 20 µM

CN1C[C@H](C(=O)N[C@]2(C)O[C@@]3(O)[C@@H]4CCCN4C(=O)[C@H](Cc4ccccc4)N3C2=O)C[C@@H]2c3cccc4[nH]cc(c34)C[C@H]21 [DIHYDROERGOTAMINE]
IC50: > 20 µM
IC50 (read-out: pIC50 (converted)): > 20 µM

C=CCOc1ccccc1OCC(O)CNC(C)C (stereo unspecified) [OXPRENOLOL]
IC50: > 20 µM
IC50 (read-out: pIC50 (converted)): > 20 µM

COC(=O)C1=C(C)NC(C)=C(C(=O)OCCCN2CCC(c3ccccc3)(c3ccccc3)CC2)[C@@H]1c1cccc([N+](=O)[O-])c1 [DEXNIGULDIPINE]
IC50: > 20 µM
IC50 (read-out: pIC50 (converted)): > 20 µM

CN1CCC(N(Cc2cccs2)c2ccccc2)CC1 [THENALIDINE]
IC50: > 20 µM
IC50 (read-out: pIC50 (converted)): > 20 µM

CCOc1ccn(-c2ccc(F)cc2)c(=O)c1C(=O)Nc1ccc(Oc2ccnc(N)c2Cl)c(F)c1 [BMS-777607]
IC50: > 20 µM
IC50 (read-out: pIC50 (converted)): > 20 µM

NC1=NCC(c2ccccc2)O1 (stereo unspecified) [AMINOREX]
IC50: > 100 µM
IC50 (read-out: pIC50 (converted)): > 100 µM

CC(Oc1ccccc1)C(=O)N[C@@H]1C(=O)N2[C@@H]1SC(C)(C)[C@@H]2C(=O)O (stereo partly specified) [PHENETHICILLIN]
IC50: > 20 µM
IC50 (read-out: pIC50 (converted)): > 20 µM

O=C(c1cc(Cc2n[nH]c(=O)c3ccccc23)ccc1F)N1CCN(C(=O)C2CC2)CC1 [OLAPARIB]
IC50: > 20 µM
IC50 (read-out: pIC50 (converted)): > 20 µM

CCCCCC(=O)O[C@]1(C(C)=O)CCC2C3CCC4=CC(=O)CCC4(C)C3CCC21C (stereo partly specified)
IC50: > 20 µM
IC50 (read-out: pIC50 (converted)): > 20 µM

CCC(=O)O[C@@H]1CC(=O)O[C@H](C)C/C=C\C=C/[C@@H](O)[C@H](C)C[C@H](CC=O)[C@H](O[C@H]2O[C@H](C)[C@@H](O[C@H]3C[C@@](C)(O)[C@@H](OC(=O)CC)[C@H](C)O3)[C@H](N(C)C)[C@H]2O)[C@H]1OC
IC50: > 20 µM
IC50 (read-out: pIC50 (converted)): > 20 µM

CCCCC1OC(=O)c2ccccc21 (stereo not drawn) [RAC-3-N-BUTYLPHTHALIDE]
IC50: > 20 µM
IC50 (read-out: pIC50 (converted)): > 20 µM

CCOC(=O)C1(c2ccccc2)CCN(CCCNc2ccccc2)CC1 [PIMINODINE]
IC50: > 20 µM
IC50 (read-out: pIC50 (converted)): > 20 µM

Cn1c(=O)c2c(ncn2CC(=O)O)n(C)c1=O [ACEFYLLINE]
IC50: > 20 µM
IC50 (read-out: pIC50 (converted)): > 20 µM

COc1nc(C)nc(Cl)c1NC1=NCCN1 [MOXONIDINE]
IC50: > 20 µM
IC50 (read-out: pIC50 (converted)): > 20 µM

Cc1cc(CCCCCCCOc2ccc(C3=NCCO3)cc2)on1 [DISOXARIL]
IC50: > 20 µM
IC50 (read-out: pIC50 (converted)): > 20 µM

CN1C(=O)C(O)N=C(c2ccccc2Cl)c2cc(Cl)ccc21 (stereo unspecified) [LORMETAZEPAM]
IC50: > 20 µM
IC50 (read-out: pIC50 (converted)): > 20 µM

Nc1ncnc2c1ncn2[C@@H]1O[C@H](COP(=O)(O)O)[C@@H](O)[C@H]1O [ADENOSINE PHOSPHATE]
IC50: > 20 µM
IC50 (read-out: pIC50 (converted)): > 20 µM

O=C1c2ccccc2C(=O)C1c1ccc(F)cc1 [FLUINDIONE]
IC50: > 20 µM
IC50 (read-out: pIC50 (converted)): > 20 µM

CCOC(=O)[C@H](CCc1ccccc1)N[C@@H](C)C(=O)N1[C@H](C(=O)O)C[C@@H]2CCC[C@@H]21
IC50: > 20 µM
IC50 (read-out: pIC50 (converted)): > 20 µM

CC1(C)CN2C(=O)c3[nH]cnc3N(Cc3ccc(Cl)cc3)C2=N1
IC50: > 20 µM
IC50 (read-out: pIC50 (converted)): > 20 µM

CCOCc1nc2c(N)nc3ccccc3c2n1CC(C)(C)O [RESIQUIMOD]
IC50: > 20 µM
IC50 (read-out: pIC50 (converted)): > 20 µM

CCC1(c2ccc(N)cc2)CCC(=O)NC1=O (stereo unspecified) [AMINOGLUTETHIMIDE]
IC50: > 20 µM
IC50 (read-out: pIC50 (converted)): > 20 µM

CC(C)NCC(O)COc1cccc2[nH]ccc12 (stereo unspecified) [PINDOLOL]
IC50: > 20 µM
IC50 (read-out: pIC50 (converted)): > 20 µM

Cn1c(=O)c2nc(C3CCCC3)[nH]c2n(C)c1=O [8-CYCLOPENTYLTHEOPHYLLINE]
IC50: > 20 µM
IC50 (read-out: pIC50 (converted)): > 20 µM

NCC(=O)O [GLYCINE]
IC50: > 20 µM
IC50 (read-out: pIC50 (converted)): > 20 µM

O=C(O)c1cc(O)ccc1O [GENTISIC ACID]
IC50: > 20 µM
IC50 (read-out: pIC50 (converted)): > 20 µM

Oc1nc(O)c2cn[nH]c2n1 [OXYPURINOL]
IC50: > 20 µM
IC50 (read-out: pIC50 (converted)): > 20 µM

CCCOC(=O)Cc1ccc(OCC(=O)N(CC)CC)c(OC)c1 [PROPANIDID]
IC50: > 20 µM
IC50 (read-out: pIC50 (converted)): > 20 µM

CC(=O)OC1CN2CCC1CC2 (stereo unspecified) [ACECLIDINE]
IC50: > 20 µM
IC50 (read-out: pIC50 (converted)): > 20 µM

CC(C)CCCC(C)C1CCC2C3CC[C@H]4CCCC[C@]4(C)C3CCC12C (stereo partly specified)
IC50: > 20 µM
IC50 (read-out: pIC50 (converted)): > 20 µM

CC1CC(OC(=O)C(O)c2ccccc2)CC(C)(C)N1C (stereo unspecified) [EUCATROPINE]
IC50: > 20 µM
IC50 (read-out: pIC50 (converted)): > 20 µM

O=c1[nH]c(=O)n(C2CCCO2)cc1F (stereo unspecified) [TEGAFUR]
IC50: > 20 µM
IC50 (read-out: pIC50 (converted)): > 20 µM

COc1cc([C@@H]2c3cc4c(cc3[C@@H](O[C@@H]3O[C@@H]5CO[C@@H](c6cccs6)O[C@H]5[C@H](O)[C@H]3O)[C@H]3COC(=O)[C@H]23)OCO4)cc(OC)c1O [TENIPOSIDE]
IC50: > 20 µM
IC50 (read-out: pIC50 (converted)): > 20 µM

O=c1[nH]cnc2c([C@@H]3N[C@H](CO)[C@@H](O)[C@H]3O)c[nH]c12 [FORODESINE]
IC50: > 20 µM
IC50 (read-out: pIC50 (converted)): > 20 µM

NCCc1ccc(O)c(O)c1 [DOPAMINE]
IC50: > 20 µM
IC50 (read-out: pIC50 (converted)): > 20 µM
